Experimental data reported in patent publication US10213445B2, “Compositions and methods of diazeniumdiolate-based prodrugs for treating cancer” (ARIZONA BOARD OF REGENTS ON BEHALF OF THE UNIVERSITY OF …, priority 2014, dated 2019).

Key:
MCF-10A cells = assay: MTT cell viability; type: cell-based, human; details: read-out: concentration for 50% reduction of viability (IC50), 48 h, did not reach a 50% reduction at 200 μM
Experimental: (§1) Figures are representative of three trials with data plotted as mean percentage versus untreated cells±SD of the four replicates per plate). Vehicle (DMSO or 10 mM NaOH) was added as a control to otherwise untreated cells.
(§2) For examples utilizing cell culture methods, the following procedure was instituted. Human breast adenocarcinoma cells (MDA-MB-231, MCF-7 and MDA-MB-468; American Type Culture Collection, Manassas, Va.) were grown as monolayers in RPMI 1640 (Invitrogen, Carlsbad, Calif.) supplemented with 10% FBS (Hyclone, Thermo Fisher Scientific Inc., Waltham, Mass.), penicillin (50 units mL^−1) and streptomycin ([…]; Life Technologies, Inc., Grand Island, N.Y.). Non-tumorigenic, human breast epithelial cells (MCF-10A; American Type Culture Collection) and HUVECs (Cell Applications, Inc., San Diego, Calif.) were grown as monolayers in endothelial growth media (Lonza Inc., US-Allendale, N.J. or Cell Applications, Inc., San Diego, Calif.). Cells were seeded at a density of 1×10^6 cells per 100 cm^2 culture dish and were incubated at 37° C. in 5% CO2 at 80% relative humidity. Single-cell suspensions were obtained by trypsinization (0.05% trypsin/EDTA, Invitrogen, Carlsbad, Calif.). MDA-MB-231 cells stably transfected with green fluorescent protein (GFP) and G418 antibiotic resistance gene were a generous gift from Dr. Aldona Karaczyn from the Maine Medical Center Research Institute, Scarborough, Me. MDA-MB-231-GFP cells were grown as described for MDA-MB-231 cells with the addition of […] ([…]) to ensure vector presence.
(§3) In this example, the impact of IPA/NO-aspirin and DEA/NO-aspirin was assessed compared to aspirin or the parent diazeniumdiolate on proliferation of four human breast cell lines: MDA-MB-231 (ER(−) adenocarcinoma), MDA-MB-468 (ER(−) adenocarcinoma), MCF-7 (ER(+) adenocarcinoma) and MCF-10A (non-tumorigenic, immortalized human breast epithelial cells).

MCF-7 cells = assay: MTT cell viability; type: cell-based, human; details: read-out: concentration for 50% reduction of viability (IC50), MCF-7, 48 h, mean ± SD for three trials
Experimental: as §1, §2, §3

MDA-MB-231 cells [1] = assay: MTT cell viability; type: cell-based, human; details: read-out: concentration for 50% reduction of viability (IC50), MDA-MB-231, 48 h, mean ± SD for three trials
Experimental: as §1, §2, §3

MDA-MB-468 cells = assay: MTT cell viability; type: cell-based, human; details: read-out: concentration for 50% reduction of viability (IC50), MDA-MB-468, 48 h, mean ± SD for three trials
Experimental: as §1, §2, §3

MDA-MB-231 cells [2] = assay: Alkaline Comet assay of DNA damage; type: cell-based, human; details: 75 μM, 8 hours, 37° C.
Experimental: Tail length: mean±SEM, n≥150.
Autoxidation of both NO and HNO leads to species that are capable of damaging DNA. Conversion of NO to N2O3 can induce mutations through base deamination) while the product of the reaction of HNO with O2 can oxidize and cleave DNA. To investigate the possibility of RNS-induced DNA damage as a mechanism of cytotoxicity, the effect of the NONO-aspirin prodrugs was studied with the alkaline Comet assay in MDA-MB-231 cells. After 8 hours, the damage induced by treatment with 50 μM IPA/NO-aspirin was significant (FIG. 7A) and similar to the H2O2 positive control (FIG. 7C). […] This may be an important factor in the observed enhanced cytotoxicity of IPA/NO-aspirin. In particular, IPA/NO-aspirin is able to damage DNA (FIG. 7) including inducing double strand breaks, in a manner similar to radiation therapy and chemotherapies such as doxorubicin.

MDA-MB-231 xenografts = assay: MDA-MB-231-GFP xenograft growth and brain metastasis in nude mice; type: in vivo; details: daily injection of equimolar doses for five weeks; for size of the primary tumor (GFP fluorescence intensity, tumor mass): vs control
Experimental: The cells were allowed to grow for 14 d, and the animals (40) were randomly divided into four groups (control, aspirin, IPA/NO-aspirin or DEA/NO-aspirin). Treated groups were injected daily with equimolar doses of DEA/NO-aspirin or IPA/NO-aspirin (16 mg kg^−1) or aspirin (9 mg kg^−1)) or with DMSO for the next five weeks.
For examples utilizing mouse tumor model methods, the following procedure was instituted. Analysis of tumor growth was carried out using protocols approved by the Committee on the Ethics of Animal Experiments of the National Cancer Institute (RBB-144) and adhered with the recommendations in the United States National Research Council's “Guide for the Care and Use of Laboratory Animals,” the United States Public Health Service's “Guide for the Care and Use of Laboratory Animals” and the “Policy on Humane Care and Use of Laboratory Animals”. The vivarium was maintained at 23° C. on a 12 h light/12 h dark cycle with ad libitum access to food and water. Nude mice (n=40) under general anesthesia were implanted with 7.5×10^5 MDA-MB-231 cells transfected with GFP by injection underneath the fourth left mammary gland. Prior to implantation, pedal withdrawal and eyelid reflexes were examined to ensure that mice were under stage III of anesthesia. At 14 days post-inoculation, the mice were randomly divided into four groups and treated by daily injection of equimolar doses (10 μL of 100 mM stock) of aspirin (9.00 mg kg^−1), IPA/NO-aspirin (15.8 mg kg^−1) or DEA/NO-aspirin (16.3 mg kg^−1) or with vehicle (DMSO). After five weeks, the tumor size was measured using in vivo fluorescent imaging for quantification of the GFP tag. In brief, mice were under general anesthesia throughout the whole body imaging process, and GFP signals were captured and quantified in an Xenogen IVIS 100 Imaging System according to the manufacturer's protocol. To assess metastasis in the brain, the animals were subsequently sacrificed following the approved method and guidelines.

ER-α = ER-α levels (mRNA of ER1) in ER-α(−) cells; type: cell-based; details: FIG. 20
prostaglandin E2 (PGE2) = details: cited from earlier work
BCL-2 = BCL-2 expression; type: cell-based; details: FIG. 18

| Structure (SMILES) | IC50 (MCF-10A cells) | IC50 (MCF-7 cells) | IC50 (MDA-MB-231 cells [1]) | IC50 (MDA-MB-468 cells) | DNA damage (Comet assay) (MDA-MB-231 cells [2]) | metastasis to the brain (GFP fluorescence) (MDA-MB-231 xenografts) | size of the primary tumor (GFP fluorescence intensity, tumor mass) (MDA-MB-231 xenografts) | ER-α levels (ER-α) | level of PGE2 (prostaglandin E2 (PGE2)) | BCL-2 expression (BCL-2) |
| --- | --- | --- | --- | --- | --- | --- | --- | --- | --- | --- |
| CCN(CC)[N+]([O-])=NOCOC(=O)c1ccccc1OC(C)=O [DEA/NO-aspirin, O2-(Acetylsalicyloyloxymethyl)-1-(N,N-Diethylamino)-diazen-1-ium-1,2-diolate] | > 200 µM | 122 ± 3 µM | 102 ± 10 µM | 90 ± 4 µM | did not differ from the DMSO-treated negative control | decreased metastasis compared to aspirin and untreated controls, the results were not statistically significant | substantial, although not statistically significant, reduction | – | – | – |
| CC(=O)Oc1ccccc1C(=O)OCON=[N+]([O-])NC(C)C [IPA/NO-aspirin, O2-(Acetylsalicyloyloxymethyl)-1-(N-isopropylamino)-diazen-1-ium-1,2-diolate] | > 200 µM | 93 ± 2 µM | 92 ± 1 µM | 81 ± 2 µM | – | decreased metastasis compared to aspirin and untreated controls, the results were not statistically significant | significant decrease | inhibit the aspirin effect | reduction in PGE2 levels | inhibits the aspirin effect |
